Entries after “also recorded” stand apart in the source; their conditions may differ.
Key:
HDAC1/2 [1] = experiment: Acetyl-lysine immunoprecipitation and LC-MS/MS of sciatic nerves after crush lesion; assay type: in vivo, mouse; conditions: 10 mg/kg in pelvic cavity after sciatic nerve crush, nerves collected 24 h later, compared to vehicle
Description: Sciatic nerve crush lesions were carried out in adult mice (3-4 month old) with the following procedure: Isoflurane (3% for induction, 1.5-2% for narcosis during operation) was used for anesthesia. For analgesia, 0.1 mg/kg buprenorphine (Temgesic; Essex Chemie) was administered by i.p. injection 1 h before lesion and 12 hours after the operation. An incision was made at the height of the hip and the sciatic nerve was exposed on one side. The nerve was crushed (5×10 sec with crush forceps: Ref FST 00632-11) and the wound was closed using Histoacryl Tissue Glue (BBraun). After the operation, mice were wrapped in paper towels and placed on a warming pad until recovery from anesthesia.
For immunoprecipitation (IP), the injured sciatic nerve was collected from the lesion site to around 12 mm distal to the lesion site (region where the nerve splits into the three branches of tibial, sural and common peroneal nerves). After perineurium removal, sciatic nerves were frozen in liquid nitrogen, pulverized with a chilled mortar and pestle, lysed in radiolP assay (RIPA) buffer (10 mM Tris/HCl, pH 7.4, 150 mM NaCl, 50 mM NaF, 100 mM NaVO4, 1 mM EDTA, 0.5% wt/vol sodium deoxycholate, and 0.5% Nonidet P-40) for 15 min on ice, and centrifuged to pellet debris. Supernatants were collected and pre-cleared for 1 h with 30 gl protein A/G PLUS agarose beads (Santa Cruz Biotechnology). […]

HDAC1/2 [2] = experiment: Subcellular fractionation, IP and Western blot in de-differentiated rat Schwann cells; assay type: cell-based
Description: Purified primary rat Schwann cell cultures were obtained as described (ref. 5). Rat Schwann cells were then grown in proliferation medium: DMEM containing 10% Fetal calf serum (FCS, Gibco), 1:500 penicillin/streptomycin (Invitrogen), 4 μg/m1 crude GGF (bovine pituitary extract, Bioconcept), and 2 μM forskolin (Sigma), at 37° C. and 5% CO2/95% air. Schwann cell de-differentiation culture protocol was previously described (ref. 6). Briefly, Schwann cells were first growth-arrested in defined medium (DM, ref. 5) for 8 to 15 h, then 1 mM dbcAMP (Sigma) was added to induce differentiation. Cells were incubated in this medium for another 3 days. The medium was then changed to DM only without dbcAMP, and incubated in this medium for 3 days (differentiation mimicking adult Schwann cell stage). To induce de-differentiation, cells were then changed to proliferation medium and incubated in this medium for 3 days.
Two 15-cm culture plates of confluent de-differentiated rat Schwann cells were used per IP. Cells were either treated with 0.6 μM Mocetinostat (HDAC1/2 inhibitor) or its vehicle for 3 days in de-differentiation medium. Cells were washed with PBS and submitted to subcellular fractionation to separate the nuclear from the cytoplasmic fractions. IPs were then carried out on each fraction nuclear and cytoplasmic, as described above. Immunoprecipitating antibodies: 2.5 μg of eEF1A1 (rabbit, Abcam, cat. # ab157455), Sox10 (rabbit, DCS Innovative Diagnostik-Systeme, cat. # 51058C01) or GFP (rabbit, Abcam, cat. # ab290) antibodies were used per IP. Rabbit anti-GFP antibody was used as negative control IP. Acetylation of eEF1A1 and co-immunoprecipitation of acetylated eEF1A with Sox10 were detected using EEF1A-pan (Acetyl-Lys41) primary antibody (rabbit, Assay Biotech, 1:1000, cat. # D12106). Co-immunoprecipitation of HDAC2 with eEF1A1 was detected using an HDAC2 antibody (mouse, Sigma, 1:1000, cat. # H2663). Light chain-specific goat anti-rabbit-HRP or anti-mouse-HRP secondary antibodies (Jackson ImmunoResearch) were used. Detection was done with Immobilon Western Chemiluminescent HRP Substrate (Millipore). Inputs of the IPs were assayed on lysates used for IPs. GAPDH (mouse, Gene Tex, 1:5000, cat. # GTX28245) and LaminA/C (mouse, Sigma, 1:2000, cat. # SAB4200236) antibodies were used to evaluate the efficiency of cytoplasmic and nuclear fractionation.

HDAC1/2 [3] = experiment: Immunofluorescence of spinal cord after intrathecal HDAC1/2 inhibitor; assay type: in vivo, mouse; conditions: single intrathecal injection 10 mg/kg, spinal cord collected after 24 h, vs vehicle
Description: For immuno fluorescence, adult mice were treated with a single intratechal injection of 10 mg/kg Mocetinostat (HDAC1/2 inhibitor) or its vehicle and their spinal cord was collected 24 h after injection. Mice were killed and perfused with 4% PFA and their spinal cord was processed as described above in Example 8. Primary antibody: EEF1A-pan (Acetyl-Lys41) antibody (rabbit, Assay Biotech, 1:1000, cat. # D12106), CC1 (mouse, 1:200, Calbiochem/Millipore, cat. # OP80).

[4] = system: mice after sciatic nerve crush lesion; experiment: Rotarod after sciatic nerve crush lesion; assay type: in vivo, mouse; conditions: 15 rpm, 10 mg/kg/day i.p. from 9 to 13 dpl, vs vehicle
Description: (§1) Adult mice were treated with theophylline or vehicle as described above in Example 4 from 9 to 13 days post sciatic nerve crush lesion (carried out as described above in Example 1). Mice were placed three times on the Rotarod apparatus at a fixed speed of 15 rpm to test balance and motor coordination, at 14 and 30 dpl. The duration of each trial was limited to 600 s, and trials were separated by a 30 min recovery period. Latency to fall from the rotating beam was recorded and the average of the three trials was used for quantification. Recovery of sensory function was tested at 14 and 30 dpl by toe pinch test: each toe of the rear foot on the right side (lesioned side) was pinched with equal pressure applied by the same experimenter using flat tip forceps. Immediate withdrawal was recorded as functional sensitivity of the pinched toe. […] All mice were between 3 and 4 months old. The experimenter was blinded regarding the treatment that mice received.

[5] = system: mice after sciatic nerve crush lesion; experiment: Toe pinch test after sciatic nerve crush lesion; assay type: in vivo, mouse; conditions: 10 mg/kg/day i.p. from 9 to 13 dpl, vs vehicle
Description: as §1

HDAC2 [6] = experiment: Western blot of P4 sciatic nerve lysates of control and HDAC1/2 dKO mice; assay type: in vivo, mouse; conditions: control mice, 10 mg/kg s.c. once a day for 3 days from P1, nerves at P4
Description: In P1 control and dKO mice (as described in Example 2), 10 mg/kg theophylline or its vehicle were injected subcutaneously once a day for 3 days. Sciatic nerves were collected at P4. After perineurium removal, sciatic nerves were frozen in liquid nitrogen, pulverized with a chilled mortar and pestle, lysed in RIPA buffer for 15 min on ice, and centrifuged to pellet debris. Supernatants were collected, submitted to SDS-PAGE and analysed by Western blot. Primary antibodies: HDAC2 (mouse, 1:1000, Sigma, cat. # H2663), Sox10 (rabbit, 1:250, DCS Innovative Diagnostik-Systeme, cat. # SI058C01), GAPDH (glyceraldehyde-3-phosphate-dehydrogenase, mouse, 1:5000, Genetex, cat. # GTX28245), P0 (chicken, 1:1000, Ayes Labs, cat. # PZO). Secondary antibodies were from Jackson ImmunoResearch: light chain-specific goat anti-mouse-HRP (horse radish peroxidase) and goat anti-rabbit-HRP, and heavy chain-specific goat anti-chicken-HRP.

multiple sclerosis = experiment: Contemplative combination treatment of MS patients; assay type: in vivo, human
Description: In this contemplative example, a group of female and male patients suffering from MS receiving theophylline [250 mg/day] during 1 month in addition to the standard treatment of interferon-β1a.

HDAC2 [7] = biological target: T1, HDAC2 (Mus musculus, UniProt P70288); experiment: Immunofluorescence of lysolecithin lesion site in dorsal funiculus of spinal cord; assay type: in vivo; conditions: 14 dpl, treated 9 to 13 days post lysolecithin lesion, vs vehicle
T1 construct: from tissue; host or cells: mouse sciatic nerve (adult after crush; P4 control and Schwann-cell HDAC1/2 dKO pups)
Description: A focal demyelinating lesion was induced in the dorsal funiculus of the spinal cord of adult mice by injection of lysolecithin (1 μl at 1%), as described (ref. 9). This demyelination model is used as a model of multiple sclerosis lesion and is well characterized, the kinetics of demyelination and remyelination being well known. Mice were treated as described above in Example 4 with theophylline or vehicle for 4 days from 9 to 13 days post lysolecithin lesion, when OLP start to re-differentiate to remyelinate demyelinated axons. Mice were killed with 150 mg/kg pentobarbital i.p. (Esconarkon; Streuli Pharma AG) and perfused with 4% PFA. Spinal cords were collected, post-fixed for 2 h in 4% PFA, incubated in 30% sucrose overnight at 4° C., embedded in OCT compound and stored at −80° C. Spinal cords were then processed as sciatic nerves for immunofluorescence, as described in Example 2. Primary antibodies: HDAC2 (rabbit, 1:200, Santa Cruz Biotechnology, cat. # sc-7899), CC1 (mouse, 1:200, Calbiochem/Millipore, cat. # OP80), MBP (rat, 1:500, Serotec, cat. # MCA409S), Sox10 (rabbit, 1:250, DCS Innovative Diagnostik-Systeme, cat. # SI058C01).

crushed sciatic nerves = experiment: Electron microscopy of crushed sciatic nerves, myelin thickness (g-ratio); assay type: in vivo, mouse; conditions: 10 mg/kg/day i.p. from 9 to 13 dpl, vs vehicle; for myelin sheath thickness: 10 mg/kg/day
Description: Adult mice were treated with theophylline or vehicle as described above in Example 4 from 9 to 13 days post sciatic nerve crush lesion. Injured sciatic nerves were collected for morphological analysis by electron microscopy. Briefly, mice were killed with 150 mg/kg pentobarbital i.p. (Esconarkon; Streuli Pharma AG) and sciatic nerves were fixed in situ with 3% paraformaldehyde and 0.15% glutaraldehyde in 0.1 M phosphate buffer, pH 7.4. Fixed tissues were post-fixed in 2% osmium tetroxide, dehydrated through a graded acetone series as described previously (ref. 7), and embedded in Spurr's resin (Electron Microscopy Sciences). Ultrathin cross-sections (90-nm thick) were made, as described (ref. 7). All analyses were done at 5 mm distal to the lesion site. No contrasting reagent was applied. Images were acquired using a Philips CM 100 BIOTWIN equipped with a Morada side-mounted digital camera (Olympus). The g-ratio of at least 50 axons was measured per animal and 3 animals per group (theophylline or vehicle) were used at 14 dpl. At 30 dpl, only 2 animals were used (more animals will be added at 30 days post lesion for statistical analyses).

[8] = system: lysolecithin demyelinating lesion of the spinal cord; experiment: Electron microscopy of spinal cord after lysolecithin lesion (remyelination); assay type: in vivo, mouse; conditions: 14 and 30 dpl, treated 9 to 13 days post lysolecithin lesion, vs vehicle
Description: For electron microscopy analyses, adult mice were submitted to a lysolecithin lesion and treated with theophylline or vehicle, as described above in Example 8. Mice were killed at 14 dpl or 30 dpl with 150 mg/kg pentobarbital i.p. (Esconarkon; Streuli Pharma AG) and perfused with 3% PFA and 0.15% glutaraldehyde in 0.1 M phosphate buffer, pH 7.4. Spinal cords were collected and processed as described above in Example 6.

HDAC2 [9] = biological target: T1, HDAC2; experiment: Western blot of sciatic nerve lysates after sciatic nerve crush lesion; assay type: in vivo; conditions: 10 mg/kg/day i.p. from 9 to 13 dpl, 14 and/or 30 dpl, vs vehicle
Description: Adult mice were treated with intraperitoneal injection of 10 mg/kg/day theophylline or its vehicle from 9 to 13 days post sciatic nerve crush lesion. At 14 days post lesion (dpl) the injured sciatic nerve (“crush”) was collected, as well as the same region of the contralateral nerve (“contra”) as internal control for each animal. After perineurium removal, sciatic nerves were frozen in liquid nitrogen, pulverized with a chilled mortar and pestle, lysed in RIPA buffer for 15 min on ice, and centrifuged to pellet debris. Supernatants were collected, and protein concentration was determined by Lowry Protein assay (Bio-Rad Laboratories). Sciatic nerves were submitted to SDS-PAGE and analysed by Western blot. Primary antibodies: HDAC2 (mouse, 1:1000, Sigma, cat. # H2663), Sox10 (rabbit, 1:250, DCS Innovative Diagnostik-Systeme, cat. # SI058C01), GAPDH (glyceraldehyde-3-phosphate-dehydrogenase, mouse, 1:5000, Genetex, cat. # GTX28245), P0 (chicken, 1:1000, Ayes Labs, cat. # PZO), Krox20 (rabbit, 1:500, Axxora, cat. # CO-PRB-236P-100). All secondary antibodies were from Jackson ImmunoResearch: light chain-specific goat anti-mouse-HRP (horse radish peroxidase) and goat anti-rabbit-HRP, and heavy chain-specific goat anti-chicken-HRP.

[10] = 0.6 μM for 3 days in de-differentiation medium

T1 sequence (P70288 whole entry): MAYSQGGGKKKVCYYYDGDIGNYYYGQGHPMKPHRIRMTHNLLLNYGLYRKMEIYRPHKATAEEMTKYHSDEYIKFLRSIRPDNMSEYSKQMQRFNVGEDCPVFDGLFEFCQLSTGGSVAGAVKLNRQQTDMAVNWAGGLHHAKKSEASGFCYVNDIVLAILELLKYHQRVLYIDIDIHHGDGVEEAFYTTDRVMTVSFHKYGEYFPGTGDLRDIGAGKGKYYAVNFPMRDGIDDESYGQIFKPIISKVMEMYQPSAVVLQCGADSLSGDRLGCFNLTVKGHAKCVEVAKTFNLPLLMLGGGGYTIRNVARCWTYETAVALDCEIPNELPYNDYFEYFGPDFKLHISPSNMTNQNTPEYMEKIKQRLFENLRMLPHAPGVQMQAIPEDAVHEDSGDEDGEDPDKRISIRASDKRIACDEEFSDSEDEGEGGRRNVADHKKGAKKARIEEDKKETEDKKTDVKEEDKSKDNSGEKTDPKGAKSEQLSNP

SMILES: Nc1ccccc1NC(=O)c1ccc(CNc2nccc(-c3cccnc3)n2)cc1 [Mocetinostat]
- abundance of eEF1A1 peptides after immunoprecipitation with anti-acetyl-lysine antibody (HDAC1/2 [1]): increased abundance
- Sox10 expression in the nuclear compartment (HDAC1/2 [2]; [10]): strong decrease
- Sox10 localization (HDAC1/2 [2]; [10]): partially re-localized from the nuclear to the cytoplasmic compartment
- acetylated eEF1A1 levels (HDAC1/2 [2]; 0.6 μM for 3 days in de-differentiation medium, vs vehicle, predominantly nuclear): strong increase
- interaction (co-immunoprecipitation) of acetylated eEF1A with Sox10 (HDAC1/2 [2]; 0.6 μM for 3 days, nuclear and cytoplasmic fractions): potentiated
- acetylated eEF1A in mature oligodendrocytes (CC1+) (HDAC1/2 [3]): robust increase; also recorded: accumulation of Ace-eEF1A in the nuclei of oligodendrocytes

SMILES: Cn1c(=O)c2[nH]cnc2n(C)c1=O [theophylline]
- performance on the Rotarod (motor function and coordination) ([4]; 14 dpl): higher performances
- performance on the Rotarod (motor function and coordination) ([4]; 30 dpl): perform as well as theophylline-treated mice
- toe pinch test, recovery of sensory function ([5]; 14 dpl): recovered the sensitivity of more toes
- toe pinch test, recovery of sensory function ([5]; 30 dpl): vehicle-treated mice had not yet recovered their sensory function as well as theophylline-treated mice
- HDAC2 levels (HDAC2 [6]): increases; also recorded: increased levels
- P0 levels (HDAC2 [6]): increases; also recorded: increased levels
- Sox10 levels (HDAC2 [6]): increases; also recorded: increased levels
- disease progression (multiple sclerosis; 250 mg/day during 1 month in addition to standard interferon-β1a): in some cases complete stop of disease progression
- remission following an attack (exacerbation) (multiple sclerosis; 250 mg/day during 1 month in addition to standard interferon-β1a, vs standard treatment only): significantly faster remission
- life quality (multiple sclerosis; combination therapy with interferon-β1a): substantially increased life quality
- HDAC2 expression in the lesion site of the spinal cord, including differentiated oligodendrocytes (CC1-positive) (HDAC2 [7]): strongly increases; also recorded: higher amounts of HDAC2
- Sox10 levels in the lesion site (HDAC2 [7]): increases; also recorded: higher levels of Sox10
- myelin basic protein (MBP) levels in the lesion site (HDAC2 [7]): increases; also recorded: higher myelin content
- g-ratio (axon diameter : [axon+myelin] diameter) (crushed sciatic nerves; 5 mm distal to lesion site): significantly lower
- myelin sheath thickness (crushed sciatic nerves; 14 dpl): thicker myelin sheath
- myelin sheath thickness (crushed sciatic nerves; 30 dpl (only 2 animals)): presumably also at 30 dpl; also recorded: thicker
- remyelination of the lesioned spinal cord [8]: strongly enhanced
- HDAC2 expression levels (HDAC2 [9]): increased levels
- Krox20 levels (HDAC2 [9]): high increase; also recorded: increased levels
- P0 (myelin protein zero) levels (HDAC2 [9]): high increase; also recorded: increased levels
- Sox10 levels (HDAC2 [9]): high increase; also recorded: increased levels

Reference: patent US12055539B2, “HDAC1/2 activator for promoting and/or accelerating myelination and/or remyelination” (UNIVERSITE DE FRIBOURG, priority 2017, dated 2024)
